How the values were obtained:
Experiment in all cases: relative viability (nuclei count vs DMSO), 5 days (fraction); higher = more cells survive
201T = tested on: 201T
In short: (§1)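 Lung cancer cell lines in 1536-well plates got either a single drug or a fixed anchor-drug dose together with five library-drug doses (not always all listed) in √10 steps, by pin tool, on the day after seeding. Nuclei were counted after 5 days, and relative viability is the treated-to-vehicle ratio of nuclei counts. Values are medians of duplicate plates.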

A-427 = tested on: A-427
In short: as §1

ABC-1 = tested on: ABC-1
In short: as §1

BEN = tested on: BEN
In short: as §1

CAL-12T = tested on: CAL-12T
In short: as §1

H3255 = tested on: H3255
In short: as §1

HCC-15 = tested on: HCC-15
In short: as §1

LC-2-ad = tested on: LC-2-ad
In short: as §1

LCLC-97TM1 = tested on: LCLC-97TM1
In short: as §1

NCI-H1651 = tested on: NCI-H1651
In short: as §1

NCI-H1792 = tested on: NCI-H1792
In short: as §1

NCI-H1915 = tested on: NCI-H1915
In short: as §1

NCI-H1944 = tested on: NCI-H1944
In short: as §1

NCI-H2023 = tested on: NCI-H2023
In short: as §1

NCI-H2087 = tested on: NCI-H2087
In short: as §1

NCI-H441 = tested on: NCI-H441
In short: as §1

NCI-H460 = tested on: NCI-H460
In short: as §1

NCI-H520 = tested on: NCI-H520
In short: as §1

NCI-H596 = tested on: NCI-H596
In short: as §1

NCI-H650 = tested on: NCI-H650
In short: as §1

NCI-H661 = tested on: NCI-H661
In short: as §1

NCI-H727 = tested on: NCI-H727
In short: as §1

PC-3 [JPC-3] = tested on: PC-3 [JPC-3]
In short: as §1

Q: `COc1cc(N2CCC(C(N)=O)CC2)ccc1Nc1nc(N)c(Cl)c(Nc2ccccc2S(=O)(=O)C(C)C)n1` [HG-5-88-01] + Cc1nc(NC(=O)N2CCC[C@H]2C(N)=O)sc1-c1ccnc(C(C)(C)C(F)(F)F)c1 [Alpelisib] (partner 2 µM) was tested. Which relative viability (201T; first compound 0.04 µM) did it give?
A: 0.99

Q: What about the relative viability (201T; first compound 0.1265 µM) of the same compound?
A: 1.06

Q: What about the relative viability (201T; first compound 0.4 µM) of the same compound?
A: 1.06

Q: What about the relative viability (201T; first compound 1.265 µM) of the same compound?
A: 0.974

Q: What about the relative viability (201T; first compound 4 µM) of the same compound?
A: 1.09

Q: What about the relative viability (A-427; first compound 0.04 µM) of the same compound?
A: 1.07

Q: What about the relative viability (A-427; first compound 0.1265 µM) of the same compound?
A: 1.12

Q: What about the relative viability (A-427; first compound 0.4 µM) of the same compound?
A: 1.16

Q: What about the relative viability (A-427; first compound 1.265 µM) of the same compound?
A: 1.12

Q: What about the relative viability (A-427; first compound 4 µM) of the same compound?
A: 0.959

Q: What about the relative viability (ABC-1; first compound 0.04 µM) of the same compound?
A: 0.919

Q: What about the relative viability (ABC-1; first compound 0.1265 µM) of the same compound?
A: 0.885

Q: What about the relative viability (ABC-1; first compound 0.4 µM) of the same compound?
A: 0.855

Q: And the relative viability (ABC-1; first compound 1.265 µM)?
A: 0.713

Q: What about the relative viability (ABC-1; first compound 4 µM) of the same compound?
A: 0.993

Q: What about the relative viability (BEN; first compound 0.04 µM) of the same compound?
A: 0.948

Q: What about the relative viability (BEN; first compound 0.1265 µM) of the same compound?
A: 1.03

Q: What about the relative viability (BEN; first compound 0.4 µM) of the same compound?
A: 1.04

Q: And the relative viability (BEN; first compound 1.265 µM)?
A: 0.853

Q: What about the relative viability (BEN; first compound 4 µM) of the same compound?
A: 1.15

Q: What about the relative viability (CAL-12T; first compound 0.04 µM) of the same compound?
A: 1.11

Q: And the relative viability (CAL-12T; first compound 0.1265 µM)?
A: 1.3

Q: And the relative viability (CAL-12T; first compound 0.4 µM)?
A: 1.19

Q: What about the relative viability (CAL-12T; first compound 1.265 µM) of the same compound?
A: 1.12

Q: What about the relative viability (CAL-12T; first compound 4 µM) of the same compound?
A: 0.874

Q: And the relative viability (H3255; first compound 0.04 µM)?
A: 0.714

Q: And the relative viability (H3255; first compound 0.1265 µM)?
A: 0.63

Q: And the relative viability (H3255; first compound 0.4 µM)?
A: 0.645

Q: And the relative viability (H3255; first compound 4 µM)?
A: 0.422

Q: And the relative viability (HCC-15; first compound 0.04 µM)?
A: 0.925

Q: What about the relative viability (HCC-15; first compound 0.1265 µM) of the same compound?
A: 0.865

Q: What about the relative viability (HCC-15; first compound 0.4 µM) of the same compound?
A: 0.936

Q: And the relative viability (HCC-15; first compound 1.265 µM)?
A: 0.832

Q: What about the relative viability (HCC-15; first compound 4 µM) of the same compound?
A: 0.775

Q: And the relative viability (LC-2-ad; first compound 0.04 µM)?
A: 0.91

Q: What about the relative viability (LC-2-ad; first compound 0.1265 µM) of the same compound?
A: 0.924

Q: What about the relative viability (LC-2-ad; first compound 0.4 µM) of the same compound?
A: 0.84

Q: What about the relative viability (LC-2-ad; first compound 1.265 µM) of the same compound?
A: 0.856

Q: And the relative viability (LC-2-ad; first compound 4 µM)?
A: 0.871

Q: What about the relative viability (LCLC-97TM1; first compound 0.04 µM) of the same compound?
A: 0.264

Q: And the relative viability (LCLC-97TM1; first compound 0.1265 µM)?
A: 0.217

Q: What about the relative viability (LCLC-97TM1; first compound 0.4 µM) of the same compound?
A: 0.198

Q: What about the relative viability (LCLC-97TM1; first compound 1.265 µM) of the same compound?
A: 0.196

Q: What about the relative viability (LCLC-97TM1; first compound 4 µM) of the same compound?
A: 0.142

Q: What about the relative viability (NCI-H1651; first compound 0.04 µM) of the same compound?
A: 0.927

Q: And the relative viability (NCI-H1651; first compound 0.1265 µM)?
A: 1

Q: And the relative viability (NCI-H1651; first compound 0.4 µM)?
A: 0.962

Q: What about the relative viability (NCI-H1651; first compound 1.265 µM) of the same compound?
A: 0.906

Q: And the relative viability (NCI-H1651; first compound 4 µM)?
A: 1.2

Q: What about the relative viability (NCI-H1792; first compound 0.04 µM) of the same compound?
A: 0.874

Q: And the relative viability (NCI-H1792; first compound 0.1265 µM)?
A: 0.686

Q: And the relative viability (NCI-H1792; first compound 0.4 µM)?
A: 0.654

Q: And the relative viability (NCI-H1792; first compound 1.265 µM)?
A: 0.635

Q: What about the relative viability (NCI-H1792; first compound 4 µM) of the same compound?
A: 0.949

Q: What about the relative viability (NCI-H1915; first compound 0.04 µM) of the same compound?
A: 1.08

Q: What about the relative viability (NCI-H1915; first compound 0.1265 µM) of the same compound?
A: 1.03

Q: And the relative viability (NCI-H1915; first compound 0.4 µM)?
A: 1.12

Q: What about the relative viability (NCI-H1915; first compound 1.265 µM) of the same compound?
A: 1.04

Q: And the relative viability (NCI-H1915; first compound 4 µM)?
A: 0.958

Q: What about the relative viability (NCI-H1944; first compound 0.04 µM) of the same compound?
A: 0.801

Q: What about the relative viability (NCI-H1944; first compound 0.1265 µM) of the same compound?
A: 0.833

Q: And the relative viability (NCI-H1944; first compound 0.4 µM)?
A: 1.01

Q: And the relative viability (NCI-H1944; first compound 1.265 µM)?
A: 0.71

Q: And the relative viability (NCI-H1944; first compound 4 µM)?
A: 0.844

Q: And the relative viability (NCI-H2023; first compound 0.04 µM)?
A: 0.659

Q: And the relative viability (NCI-H2023; first compound 0.1265 µM)?
A: 0.54

Q: What about the relative viability (NCI-H2023; first compound 0.4 µM) of the same compound?
A: 0.539

Q: What about the relative viability (NCI-H2023; first compound 1.265 µM) of the same compound?
A: 0.358

Q: And the relative viability (NCI-H2023; first compound 4 µM)?
A: 0.474

Q: What about the relative viability (NCI-H2087; first compound 0.04 µM) of the same compound?
A: 0.967

Q: What about the relative viability (NCI-H2087; first compound 0.1265 µM) of the same compound?
A: 1.17

Q: And the relative viability (NCI-H2087; first compound 0.4 µM)?
A: 0.997

Q: What about the relative viability (NCI-H2087; first compound 1.265 µM) of the same compound?
A: 1.04

Q: And the relative viability (NCI-H2087; first compound 4 µM)?
A: 0.974

Q: And the relative viability (NCI-H441; first compound 0.04 µM)?
A: 0.752

Q: What about the relative viability (NCI-H441; first compound 0.1265 µM) of the same compound?
A: 0.77

Q: And the relative viability (NCI-H441; first compound 0.4 µM)?
A: 0.845

Q: What about the relative viability (NCI-H441; first compound 1.265 µM) of the same compound?
A: 0.84

Q: What about the relative viability (NCI-H441; first compound 4 µM) of the same compound?
A: 0.893

Q: And the relative viability (NCI-H460; first compound 0.04 µM)?
A: 0.466

Q: What about the relative viability (NCI-H460; first compound 0.1265 µM) of the same compound?
A: 0.461

Q: And the relative viability (NCI-H460; first compound 0.4 µM)?
A: 0.461

Q: What about the relative viability (NCI-H460; first compound 1.265 µM) of the same compound?
A: 0.335

Q: And the relative viability (NCI-H460; first compound 4 µM)?
A: 0.304

Q: And the relative viability (NCI-H520; first compound 0.04 µM)?
A: 0.85

Q: What about the relative viability (NCI-H520; first compound 0.1265 µM) of the same compound?
A: 0.94

Q: And the relative viability (NCI-H520; first compound 0.4 µM)?
A: 0.884

Q: And the relative viability (NCI-H520; first compound 1.265 µM)?
A: 1.01

Q: What about the relative viability (NCI-H520; first compound 4 µM) of the same compound?
A: 1.03

Q: And the relative viability (NCI-H596; first compound 0.04 µM)?
A: 0.529

Q: What about the relative viability (NCI-H596; first compound 0.1265 µM) of the same compound?
A: 0.477

Q: What about the relative viability (NCI-H596; first compound 0.4 µM) of the same compound?
A: 0.587

Q: And the relative viability (NCI-H596; first compound 1.265 µM)?
A: 0.362

Q: And the relative viability (NCI-H596; first compound 4 µM)?
A: 0.493

Q: And the relative viability (NCI-H650; first compound 0.04 µM)?
A: 0.689

Q: And the relative viability (NCI-H650; first compound 0.1265 µM)?
A: 1.18

Q: What about the relative viability (NCI-H650; first compound 0.4 µM) of the same compound?
A: 1.04

Q: And the relative viability (NCI-H650; first compound 1.265 µM)?
A: 0.816

Q: What about the relative viability (NCI-H650; first compound 4 µM) of the same compound?
A: 0.8

Q: What about the relative viability (NCI-H661; first compound 0.04 µM) of the same compound?
A: 0.609

Q: What about the relative viability (NCI-H661; first compound 0.1265 µM) of the same compound?
A: 0.773

Q: And the relative viability (NCI-H661; first compound 0.4 µM)?
A: 0.916

Q: And the relative viability (NCI-H661; first compound 4 µM)?
A: 0.693

Q: And the relative viability (NCI-H727; first compound 0.04 µM)?
A: 0.517

Q: And the relative viability (NCI-H727; first compound 0.1265 µM)?
A: 0.512

Q: And the relative viability (NCI-H727; first compound 0.4 µM)?
A: 0.519

Q: And the relative viability (NCI-H727; first compound 1.265 µM)?
A: 0.329

Q: And the relative viability (NCI-H727; first compound 4 µM)?
A: 0.27

Q: And the relative viability (PC-3 [JPC-3]; first compound 0.04 µM)?
A: 0.965

Q: And the relative viability (PC-3 [JPC-3]; first compound 0.1265 µM)?
A: 1.04

Q: And the relative viability (PC-3 [JPC-3]; first compound 0.4 µM)?
A: 1

Q: What about the relative viability (PC-3 [JPC-3]; first compound 1.265 µM) of the same compound?
A: 0.971

Q: What about the relative viability (PC-3 [JPC-3]; first compound 4 µM) of the same compound?
A: 0.825
